Experimental data as given in the supplement of paper PMC10307832.

How the values were obtained:
Experiment in all cases: relative viability (nuclei count vs DMSO), 5 days (fraction); higher = more cells survive
NCI-H1623 = test system: NCI-H1623
Method in brief: (§1)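 The day after seeding in 1536-well plates, lung cancer cell lines were treated by pin tool with a single drug, or with a fixed anchor-drug dose together with five library-drug doses (not always all listed) in √10 steps. After 5 days, a combined fix-and-stain solution (final 0.05% Triton X-100, 1% formaldehyde, 1 ug/ml Hoechst) was added. Nuclei counted on 4× images gave relative viability as treated counts over vehicle counts, reported as the median of duplicate plates.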

NCI-H1993 = test system: NCI-H1993
Method in brief: as §1

NCI-H596 = test system: NCI-H596
Method in brief: as §1

NCI-H23 = test system: NCI-H23
Method in brief: as §1

NCI-H522 = test system: NCI-H522
Method in brief: as §1

Question: What does the source list for `CC1(C)CCC(c2ccc(Cl)cc2)=C(CN2CCN(c3ccc(C(=O)NS(=O)(=O)c4ccc(N[C@H](CCN5CCOCC5)CSc5ccccc5)c(S(=O)(=O)C(F)(F)F)c4)cc3)CC2)C1` [Navitoclax] + CCNC(=O)c1noc(-c2cc(C(C)C)c(O)cc2O)c1-c1ccc(CN2CCOCC2)cc1 [Luminespib] (partner 0.01 µM)?
Answer: relative viability (NCI-H1623; first compound 0.005 µM): 0.478; relative viability (NCI-H1623; first compound 0.01581 µM): 0.631; relative viability (NCI-H1623; first compound 0.05 µM): 0.463; relative viability (NCI-H1623; first compound 0.1581 µM): 0.515; relative viability (NCI-H1623; first compound 0.5 µM): 0.471; relative viability (NCI-H1993; first compound 0.005 µM): 0.813; relative viability (NCI-H1993; first compound 0.01581 µM): 0.891; relative viability (NCI-H1993; first compound 0.05 µM): 0.824; relative viability (NCI-H1993; first compound 0.1581 µM): 0.913; relative viability (NCI-H1993; first compound 0.5 µM): 0.803; relative viability (NCI-H596; first compound 0.005 µM): 0.34; relative viability (NCI-H596; first compound 0.01581 µM): 1.14; relative viability (NCI-H596; first compound 0.1581 µM): 0.867; relative viability (NCI-H596; first compound 0.5 µM): 0.443; relative viability (NCI-H23; first compound 0.005 µM): 0.223; relative viability (NCI-H23; first compound 0.01581 µM): 0.218; relative viability (NCI-H23; first compound 0.05 µM): 0.224; relative viability (NCI-H23; first compound 0.1581 µM): 0.213; relative viability (NCI-H23; first compound 0.5 µM): 0.209; relative viability (NCI-H522; first compound 0.005 µM): 1.07; relative viability (NCI-H522; first compound 0.01581 µM): 1.25; relative viability (NCI-H522; first compound 0.05 µM): 1.04; relative viability (NCI-H522; first compound 0.1581 µM): 1.19; relative viability (NCI-H522; first compound 0.5 µM): 1.36

Question: With `Oc1nc(-c2ccc(C(F)(F)F)cc2)nc2c1CSCC2` [XAV939] + CCNC(=O)c1noc(-c2cc(C(C)C)c(O)cc2O)c1-c1ccc(CN2CCOCC2)cc1 [Luminespib] (partner 0.01 µM) as the compound, how does the relative viability (NCI-H1623; first compound 0.08 µM) read?
Answer: 0.493

Question: What about the relative viability (NCI-H1623; first compound 0.253 µM) of the same compound?
Answer: 0.432

Question: And the relative viability (NCI-H1623; first compound 0.8 µM)?
Answer: 0.415

Question: What about the relative viability (NCI-H1623; first compound 2.53 µM) of the same compound?
Answer: 0.357

Question: What about the relative viability (NCI-H1993; first compound 0.08 µM) of the same compound?
Answer: 0.779

Question: And the relative viability (NCI-H1993; first compound 0.253 µM)?
Answer: 0.672

Question: What about the relative viability (NCI-H1993; first compound 0.8 µM) of the same compound?
Answer: 0.748

Question: And the relative viability (NCI-H1993; first compound 2.53 µM)?
Answer: 0.714

Question: And the relative viability (NCI-H596; first compound 0.08 µM)?
Answer: 1.06

Question: What about the relative viability (NCI-H596; first compound 0.253 µM) of the same compound?
Answer: 0.881

Question: And the relative viability (NCI-H596; first compound 0.8 µM)?
Answer: 1.13

Question: What about the relative viability (NCI-H596; first compound 2.53 µM) of the same compound?
Answer: 0.873

Question: And the relative viability (NCI-H23; first compound 0.08 µM)?
Answer: 0.251

Question: What about the relative viability (NCI-H23; first compound 0.253 µM) of the same compound?
Answer: 0.214

Question: What about the relative viability (NCI-H23; first compound 0.8 µM) of the same compound?
Answer: 0.224

Question: And the relative viability (NCI-H23; first compound 2.53 µM)?
Answer: 0.221

Question: What about the relative viability (NCI-H522; first compound 0.08 µM) of the same compound?
Answer: 1.45

Question: What about the relative viability (NCI-H522; first compound 0.253 µM) of the same compound?
Answer: 1.24

Question: What about the relative viability (NCI-H522; first compound 0.8 µM) of the same compound?
Answer: 1.05

Question: What about the relative viability (NCI-H522; first compound 2.53 µM) of the same compound?
Answer: 1.09

Question: What does the source list for `CC1(C)CCC(c2ccc(Cl)cc2)=C(CN2CCN(c3ccc(C(=O)NS(=O)(=O)c4ccc(N[C@H](CCN5CCOCC5)CSc5ccccc5)c(S(=O)(=O)C(F)(F)F)c4)cc3)CC2)C1` [Navitoclax] + Cc1nc(Nc2ncc(C(=O)Nc3c(C)cccc3Cl)s2)cc(N2CCN(CCO)CC2)n1 [Dasatinib] (partner 0.075 µM)?
Answer: relative viability (NCI-H1623; first compound 0.005 µM): 0.546; relative viability (NCI-H1623; first compound 0.01581 µM): 0.578; relative viability (NCI-H1623; first compound 0.05 µM): 0.518; relative viability (NCI-H1623; first compound 0.1581 µM): 0.539; relative viability (NCI-H1623; first compound 0.5 µM): 0.618; relative viability (NCI-H1993; first compound 0.005 µM): 0.674; relative viability (NCI-H1993; first compound 0.01581 µM): 0.689; relative viability (NCI-H1993; first compound 0.05 µM): 0.467; relative viability (NCI-H1993; first compound 0.1581 µM): 0.625; relative viability (NCI-H1993; first compound 0.5 µM): 0.643; relative viability (NCI-H596; first compound 0.005 µM): 0.734; relative viability (NCI-H596; first compound 0.01581 µM): 0.68; relative viability (NCI-H596; first compound 0.1581 µM): 0.603; relative viability (NCI-H596; first compound 0.5 µM): 0.438; relative viability (NCI-H23; first compound 0.005 µM): 0.841; relative viability (NCI-H23; first compound 0.01581 µM): 0.79; relative viability (NCI-H23; first compound 0.05 µM): 0.627; relative viability (NCI-H23; first compound 0.1581 µM): 0.705; relative viability (NCI-H23; first compound 0.5 µM): 0.779; relative viability (NCI-H522; first compound 0.005 µM): 0.685; relative viability (NCI-H522; first compound 0.01581 µM): 1.02; relative viability (NCI-H522; first compound 0.05 µM): 1.17; relative viability (NCI-H522; first compound 0.1581 µM): 1.06; relative viability (NCI-H522; first compound 0.5 µM): 0.816
